Measured values reported in publication PMC7594025, “Synthesis, Docking, 3-D-Qsar, and Biological Assays of Novel Indole Derivatives Targeting Serotonin Transporter, Dopamine D2 Receptor, and Mao-A Enzyme: In the Pursuit for Potential Multitarget Directed Ligands” (Molecules, 2020).
Where two headings read alike, the source gives them in different places.

Assays:
[1] = target: T1, SERT (Homo sapiens, UniProt P31645); assay: SERT competitive binding assay, [3H]-paroxetine, membranes from HEK-293 clonal cell line overexpressing SERT
T1 construct: purchased Perkin-Elmer (Boston, MA, USA) RBHSTM400UA; host or cells: HEK-293 clonal cell line
Method: To determine the binding of all compounds at SERT, competitive binding assays were performed according to previously reported procedures with some modifications. […] Control curve was performed with fluoxetine in the same experimental conditions. Non-specific binding was determined with 10 µM fluoxetine.
The IC50 and Ki values correspond to the results of three independent experiments, each in triplicate. All data are expressed as the mean ± SEM.

[2] = target: T2, D2 receptor (Homo sapiens, UniProt P14416); assay: D2 receptor competitive binding assay, [3H]-methylspiperone, membranes from CHO-K1 clonal cell line overexpressing D2 receptor; conditions: for Ki: 0.5 nM [3H]-methylspiperone, 2 h at 27 °C, mean ± SEM of three experiments, each in triplicate
T2 construct: purchased Perkin-Elmer (Boston, MA, USA) RBHD2CM400UA; host or cells: CHO-K1 clonal cell line
Method: To determine the binding of all compounds at D2 receptor, competitive binding assays were performed according to provider indications with some modifications. […] Radioactivity was counted as described before.

[3] = target: T3, rat MAO-A (Rattus norvegicus, UniProt P21396); assay: MAO-A inhibition, crude rat brain mitochondrial suspension, serotonin substrate, HPLC-ED; assay type: biochemical; conditions: 100 µM compound; serotonin 100 µM as substrate
T3 construct: using a crude rat brain mitochondrial suspension as a source of enzyme; from tissue; host or cells: rat brain (crude mitochondrial suspension)
T3 sequence (P21396 1-526): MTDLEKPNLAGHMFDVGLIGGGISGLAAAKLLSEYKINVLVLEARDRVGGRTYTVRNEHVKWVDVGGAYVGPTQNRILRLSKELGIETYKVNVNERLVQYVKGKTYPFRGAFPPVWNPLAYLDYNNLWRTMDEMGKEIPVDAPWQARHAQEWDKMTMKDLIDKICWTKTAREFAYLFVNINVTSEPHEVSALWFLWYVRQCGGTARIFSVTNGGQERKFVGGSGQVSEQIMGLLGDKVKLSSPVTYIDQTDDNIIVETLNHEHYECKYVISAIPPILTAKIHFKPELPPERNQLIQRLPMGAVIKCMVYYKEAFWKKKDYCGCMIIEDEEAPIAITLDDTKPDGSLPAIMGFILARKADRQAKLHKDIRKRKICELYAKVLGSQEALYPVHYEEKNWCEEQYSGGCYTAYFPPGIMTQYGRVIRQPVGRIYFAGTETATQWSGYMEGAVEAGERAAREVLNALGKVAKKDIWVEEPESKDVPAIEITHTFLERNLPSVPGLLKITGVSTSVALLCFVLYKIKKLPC
Method: The effects of the compounds on rat MAO-A activity were studied following a previously reported methodology, using a crude rat brain mitochondrial suspension as a source of enzyme. Serotonin (100 µM) was used as the selective substrate for MAO-A. This compound and its metabolite were detected by HPLC with electrochemical detection. As an exploratory evaluation, the percentage of MAO-A inhibition in the presence of 100 µM of the different compounds was determined, with the idea of evaluating in detail those compounds showing an inhibitory activity in the range of 70–100%.

[4] = 2 nM [3H]-paroxetine, 1 h at 27 °C, mean ± SEM of three experiments, each in triplicate, read-out: Ki SERT
[5] = SERT, experimental values used for CoMFA/CoMSIA (Table S3), read-out: Exp. pKi (converted)

T1 sequence (P31645 whole entry): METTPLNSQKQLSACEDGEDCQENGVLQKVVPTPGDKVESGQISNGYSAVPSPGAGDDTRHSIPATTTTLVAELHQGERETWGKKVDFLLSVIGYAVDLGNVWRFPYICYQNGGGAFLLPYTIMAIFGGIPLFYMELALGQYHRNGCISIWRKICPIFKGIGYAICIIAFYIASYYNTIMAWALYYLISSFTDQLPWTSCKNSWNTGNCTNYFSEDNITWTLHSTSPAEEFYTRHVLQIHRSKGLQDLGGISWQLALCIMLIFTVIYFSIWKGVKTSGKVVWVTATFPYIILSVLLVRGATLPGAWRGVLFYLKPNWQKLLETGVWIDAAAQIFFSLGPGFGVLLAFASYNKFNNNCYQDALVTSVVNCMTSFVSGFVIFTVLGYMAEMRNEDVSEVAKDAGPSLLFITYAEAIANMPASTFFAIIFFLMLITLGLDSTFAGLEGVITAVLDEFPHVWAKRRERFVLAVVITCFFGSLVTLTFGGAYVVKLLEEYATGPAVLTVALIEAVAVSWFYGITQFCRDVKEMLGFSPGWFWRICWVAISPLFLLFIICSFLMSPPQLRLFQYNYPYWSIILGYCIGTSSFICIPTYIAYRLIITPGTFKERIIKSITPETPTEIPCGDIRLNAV
T2 sequence (P14416 whole entry): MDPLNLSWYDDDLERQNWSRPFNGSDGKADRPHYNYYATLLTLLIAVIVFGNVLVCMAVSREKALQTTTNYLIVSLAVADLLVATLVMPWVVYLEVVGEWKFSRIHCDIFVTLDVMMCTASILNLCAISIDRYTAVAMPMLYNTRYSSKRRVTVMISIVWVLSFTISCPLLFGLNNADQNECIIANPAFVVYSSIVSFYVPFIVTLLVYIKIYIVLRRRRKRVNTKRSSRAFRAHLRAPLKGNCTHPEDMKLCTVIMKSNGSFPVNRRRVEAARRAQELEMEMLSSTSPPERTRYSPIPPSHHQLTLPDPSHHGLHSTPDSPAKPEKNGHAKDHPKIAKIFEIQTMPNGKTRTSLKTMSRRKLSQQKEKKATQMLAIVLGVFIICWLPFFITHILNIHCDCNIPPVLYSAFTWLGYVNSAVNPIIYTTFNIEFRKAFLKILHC

O=C(CN1CCN(CCCc2c[nH]c3ccc(F)cc23)CC1)N1CCOc2ccccc21 [Compound 7g, 1-(2,3-Dihydro-benzo[b][1,4]oxazin-4-yl)-2-{4-[3-(5-fluoro-1H-3-indolyl)-propyl]-1-piperazinyl} ethanamide]
Ki [1, 4]: 9.63 ± 0.31 nM | Ki [2]: 2320 ± 64 nM | inhibition at 100 µM [3]: 41% | melting point: 168.4 to 171.3 °C

COc1ccc2c(c1)N(C(=O)CN1CCN(CCCc3c[nH]c4ccc(F)cc34)CC1)CCO2 [Compound 7l, 1-(6-Methoxy-2,3-dihydro-benzo[b][1,4]oxazin-4-yl)-2-{4-[3-(5-fluoro-1H-3-indolyl)-propyl]-1-piperazinyl} ethanamide]
Ki [1, 4]: 12.6 ± 1.52 nM | Ki [2]: 3320 ± 256 nM | inhibition at 100 µM [3]: 52% | melting point: 94.5 to 97.3 °C

O=C(CN1CCN(CCCc2c[nH]c3ccc(Br)cc23)CC1)N1CCOc2ccccc21 [Compound 7m, 1-(2,3-Dihydro-benzo[b][1,4]oxazin-4-yl)-2-{4-[3-(5-bromo-1H-3-indolyl)-propyl]-1-piperazinyl} ethanamide]
Ki [1, 4]: 50.2 ± 2.47 nM | Ki [1, 5]: 50.1 nM | Ki [2]: 593 ± 62 nM | inhibition at 100 µM [3]: 30% | melting point: 90.5 to 92.4 °C

O=C(CN1CCN(CCCc2c[nH]c3ccc(Br)cc23)CC1)Nc1cc(C(=O)NCCN2CCOCC2)ccc1F [Compound 13f, 4-Fluoro-3-(2-{4-[3-(5-bromo-1H-3-indolyl)-propyl]-1-piperazinyl}-acetylamino)-N-(2-morpholin-4-yl-ethyl) Benzamide]
Ki [1, 4]: 58.8 ± 1.14 nM | Ki [2]: 1830 ± 33 nM | inhibition at 100 µM [3]: 39% | melting point: 85.2 to 86.8 °C

O=C(CN1CCN(CCCc2c[nH]c3ccccc23)CC1)Nc1ccc(F)c(C(=O)NCCN2CCOCC2)c1 [Compound 13k, 2-Fluoro-5-(2-{4-[3-(1H-3-indolyl)-propyl]-1-piperazinyl}-acetylamino)-N-(2-morpholin-4-yl-ethyl) Benzamide]
Ki [1, 4]: 26.8 ± 0.91 nM | Ki [2]: 4170 ± 335 nM | inhibition at 100 µM [3]: 34% | melting point: 69.7 to 71.5 °C

O=C(CN1CCN(CCCc2c[nH]c3ccc(Br)cc23)CC1)N1CCOc2cc(F)ccc21 [Compound 7n, 1-(7-Fluoro-2,3-dihydro-benzo[b][1,4]oxazin-4-yl)-2-{4-[3-(5-bromo-1H-3-indolyl)-propyl]-1-piperazinyl} ethanamide]
Ki [1, 4]: 84.4 nM | Ki [2]: 307 ± 6 nM | D2/SERT ratio ([2]; ratio of Ki at D2 receptor to Ki at SERT): 3.6 | inhibition at 100 µM [3]: 23% | melting point: 96.1 to 98.1 °C

O=C(CN1CCN(CCCc2c[nH]c3ccccc23)CC1)Nc1ccc(F)cc1C(=O)NCCN1CCOCC1 [Compound 13l, 5-Fluoro-2-(2-{4-[3-(1H-3-indolyl)-propyl]-1-piperazinyl}-acetylamino)-N-(2-morpholin-4-yl-ethyl) Benzamide]
Ki [1, 4]: 52.2 ± 3.24 nM | Ki [2]: 2000 ± 34 nM | inhibition at 100 µM [3]: 34% | melting point: 68.1 to 69.6 °C

O=C(CN1CCN(CCCc2c[nH]c3ccccc23)CC1)N1CCOc2ccccc21 [Compound 7a, 1-(2,3-Dihydro-benzo[b][1,4]oxazin-4-yl)-2-{4-[3-(1H-3-indolyl)-propyl]-1-piperazinyl} ethanamide]
Ki [1, 4]: 307 ± 30.5 nM | Ki [2]: 4840 ± 68 nM | inhibition at 100 µM [3]: 27% | melting point: 124.3 to 125.8 °C

O=C(CN1CCN(CCCc2c[nH]c3ccc(Br)cc23)CC1)Nc1cc(F)ccc1C(=O)NCCN1CCOCC1 [Compound 13e, 4-Fluoro-2-(2-{4-[3-(5-bromo-1H-3-indolyl)-propyl]-1-piperazinyl}-acetylamino)-N-(2-morpholin-4-yl-ethyl) Benzamide]
Ki [1, 4]: 223 ± 16.4 nM | Ki [2]: 5619 ± 31 nM | inhibition at 100 µM [3]: 39% | melting point: 92.1 to 93.8 °C

O=C(CN1CCN(CCCc2c[nH]c3ccc(Br)cc23)CC1)Nc1ccc(F)c(C(=O)NCCN2CCOCC2)c1 [Compound 13g, 2-Fluoro-5-(2-{4-[3-(5-bromo-1H-3-indolyl)-propyl]-1-piperazinyl}-acetylamino)-N-(2-morpholin-4-yl-ethyl) Benzamide]
Ki [1, 4]: 12.6 ± 0.42 nM | Ki [2]: 765 ± 16 nM | inhibition at 100 µM [3]: 16% | melting point: 73.2 to 74.5 °C

O=C(CN1CCN(CCCc2c[nH]c3ccc(F)cc23)CC1)Nc1cc(C(=O)NCCN2CCOCC2)ccc1F [Compound 13b, 4-Fluoro-3-(2-{4-[3-(5-fluor-1H-3-indolyl)-propyl]-1-piperazinyl}-acetylamino)-N-(2-morpholin-4-yl-ethyl) Benzamide]
Ki [1, 4]: 23.8 ± 0.46 nM | Ki [2]: 3100 ± 42 nM | inhibition at 100 µM [3]: 42% | melting point: 92.2 to 93.9 °C

O=C(CN1CCN(CCCc2c[nH]c3ccc(Br)cc23)CC1)Nc1ccc(F)cc1C(=O)NCCN1CCOCC1 [Compound 13h, 5-Fluoro-2-(2-{4-[3-(5-bromo-1H-3-indolyl)-propyl]-1-piperazinyl}-acetylamino)-N-(2-morpholin-4-yl-ethyl) Benzamide]
Ki [1, 4]: 200 ± 14.5 nM | Ki [2]: 4700 ± 168 nM | inhibition at 100 µM [3]: 9.4% | melting point: 73.8 to 74.7 °C

O=C(CN1CCN(CCCc2c[nH]c3ccc(F)cc23)CC1)Nc1ccc(F)c(C(=O)NCCN2CCOCC2)c1 [Compound 13c, 2-Fluoro-5-(2-{4-[3-(5-fluor-1H-3-indolyl)-propyl]-1-piperazinyl}-acetylamino)-N-(2-morpholin-4-yl-ethyl) Benzamide]
Ki [1, 4]: 6.83 ± 0.19 nM | Ki [2]: 593 ± 30.2 nM | inhibition at 100 µM [3]: 28% | melting point: 91.8 to 93.2 °C

O=C(CN1CCN(CCCc2c[nH]c3ccc(F)cc23)CC1)N1CCOc2ccc(Br)cc21 [Compound 7k, 1-(6-Bromo-2,3-dihydro-benzo[b][1,4]oxazin-4-yl)-2-{4-[3-(5-fluoro-1H-3-indolyl)-propyl]-1-piperazinyl} ethanamide]
Ki [1, 4]: 5.63 ± 0.82 nM | Ki [1, 5]: 5.62 nM | Ki [2]: 1040 ± 232 nM | inhibition at 100 µM [3]: 20% | melting point: 102.8 to 103.9 °C

O=C(CN1CCN(CCCc2c[nH]c3ccc(F)cc23)CC1)N1CCOc2cc(F)ccc21 [Compound 7h, 1-(7-Fluoro-2,3-dihydro-benzo[b][1,4]oxazin-4-yl)-2-{4-[3-(5-fluoro-1H-3-indolyl)-propyl]-1-piperazinyl} ethanamide]
Ki [1, 4]: 7.61 ± 0.02 nM | Ki [2]: 2320 ± 163 nM | inhibition at 100 µM [3]: 0% | melting point: 168.1 to 169.9 °C

COc1ccc2c(c1)N(C(=O)CN1CCN(CCCc3c[nH]c4ccccc34)CC1)CCO2 [Compound 7f, 1-(6-Methoxy-2,3-dihydro-benzo[b][1,4]oxazin-4-yl)-2-{4-[3-(1H-3-indolyl)-propyl]-1-piperazinyl} ethanamide]
Ki [1, 4]: 412 ± 57.9 nM | Ki [2]: 4410 ± 647 nM | inhibition at 100 µM [3]: 58% | melting point: 123.6 to 125.1 °C

O=C(CN1CCN(CCCc2c[nH]c3ccccc23)CC1)N1CCOc2ccc(Br)cc21 [Compound 7e, 1-(6-Bromo-2,3-dihydro-benzo[b][1,4]oxazin-4-yl)-2-{4-[3-(1H-3-indolyl)-propyl]-1-piperazinyl} ethanamide]
Ki [1, 4]: 36.6 ± 0.55 nM | Ki [2]: 910 ± 263 nM | inhibition at 100 µM [3]: 38% | melting point: 132.7 to 134.1 °C

O=C(CN1CCN(CCCc2c[nH]c3ccc(Br)cc23)CC1)N1CCOc2ccc(F)cc21 [Compound 7o, 1-(6-Fluoro-2,3-dihydro-benzo[b][1,4]oxazin-4-yl)-2-{4-[3-(5-bromo-1H-3-indolyl)-propyl]-1-piperazinyl} ethanamide]
Ki [1, 5]: 34.9 nM | Ki [2]: 1150 ± 227 nM | inhibition at 100 µM [3]: 26% | melting point: 97.2 to 98.8 °C

O=C(CN1CCN(CCCc2c[nH]c3ccccc23)CC1)N1CCOc2ccc(Cl)cc21 [Compound 7d, 1-(6-Chloro-2,3-dihydro-benzo[b][1,4]oxazin-4-yl)-2-{4-[3-(1H-3-indolyl)-propyl]-1-piperazinyl} ethanamide]
Ki [1, 4]: 81.4 ± 4.97 nM | Ki [2]: 1260 ± 182 nM | inhibition at 100 µM [3]: 18% | melting point: 135.3 to 136.1 °C
